Measurements from patent publication US8501766B2, “Treatment of rheumatoid arthritis with a combination of laquinimod and methotrexate” (Teva Pharmaceutical Industries Ltd., priority 2010, dated 2013).

Key:
Format in all cases: in vivo, male DBA/1OlaHsd mice
[1] = tested on: semi-established type II collagen arthritis; experiment: 35 day mouse semi-established type II collagen arthritis: body weight, disease incidence, clinical arthritis scores and AUC; settings: for Reduction of clinical arthritis scores expressed as area under the curve (AUC): days 18-34; for Reduction of clinical arthritis scores expressed as area under the curve (AUC) / Daily clinical arthritis scores: vs vehicle controls
Procedure: Mouse type II collagen arthritis is an art-recognized animal model for rheumatoid arthritis in humans (Bendele, 2001). […] Mice were terminated on day 34. […] Evaluation of serum anti-type II collagen antibody levels were also performed (groups 1-3, 6 and 8 only). All animals survived to study termination. • 1. […] Mice were anesthetized with Isoflurane and given 150 μl of Bovine Type II collagen in Freund's complete adjuvant injections (Sigma) containing bovine type II collagen (Elastin Products, Owensville, Mo.) (2 mg/ml) at the base of the tail (D0 and day 21). • 3. Mice were randomized by body weight into treatment groups on study day 18. • 4. MTX was provided by Bolder BioPATH, Inc. as a 1 mg/ml stock solution purchased from MWI and was prepared as a 0.05 mg/ml solution in 1% CMC for dosing at 10 ml/kg. • 5. All dose solutions were prepared to deliver at 10 ml/kg (0.3 ml/30 g) mouse. • 6. Treatment is initiated on study day 18 and continued once daily, every day (po, qd) according to Table 1. [table] • 7. During the period of treatment, clinical scores were given for each of the paws (right front, left front, right rear, left rear) according to Table 2. [table] • 8. On days 21-35, onset of arthritis occurred. Mice were weighed on arthritis days 18, 20, 22, 24, 26, 28, 30, 32, and prior to tissue collection on day 34 (final day). • 9. At necropsy, animals from all groups were bled via cardiac puncture for serum and terminated via cervical dislocation. Fore paws, hind paws and knees were removed and placed in 10% NBF. Whole blood was allowed to clot at room temperature for approximately 2 hours before being spun at 13,000 rpm for 8 minutes. • 10. Processing of Joints: Following 1-2 days in fixative and then 4-5 days in decalcifier, the joints were processed, embedded, sectioned and stained with toluidine blue and H&E (2 slides per animal). Only fore and hind paws and knees were processed initially (6 joints/mouse). • 11. Morphologic Pathology Methods: […] Hind paws, fore paws, and knees were embedded and sectioned in the frontal plane. Six joints from each animal were processed for histopathology elevation. • 12. Tissue Processing and Evaluation: • a. place joints in decalcifier, • b. trim joints, wash, process tissues, • c. embed joints, • d. section tissues, stain tissues, • e. histopathologic evaluation, and • f. data processing, QC, prepare graphs and report. Histopathologic Scoring Methods for Mouse Joints with Type II Collagen Arthritis Clinical data for paw scores (means for animal) were analyzed by determining the area under the dosing curve (AUC) for study days 18-34. For calculation of AUC, the daily mean scores for each mouse were entered into Microsoft Excel and the area between the treatment days after the onset of disease to the final day was computed. Means for each group were determined and the percent inhibition from arthritis controls was calculated by comparing values for treated and normal animals. […] Percent inhibition of clinical parameters and AUC is calculated using the following formula: % Inhibition=[…], where A=Mean Disease Control−Mean Normal • B=Mean Treated−Mean Normal Results

[2] = tested on: semi-established type II collagen arthritis; experiment: Histopathology of fore paws, hind paws and knees in mouse type II collagen arthritis; settings: vs vehicle controls; for Paw histopathology, reduction of summed scores: 4 paws; for Six-joint mean histopathology, reduction of summed scores: four paws and two knees
Procedure: Mice were terminated on day 34. […] Evaluation of serum anti-type II collagen antibody levels were also performed (groups 1-3, 6 and 8 only). All animals survived to study termination. • 8. On days 21-35, onset of arthritis occurred. Mice were weighed on arthritis days 18, 20, 22, 24, 26, 28, 30, 32, and prior to tissue collection on day 34 (final day). • 9. At necropsy, animals from all groups were bled via cardiac puncture for serum and terminated via cervical dislocation. Fore paws, hind paws and knees were removed and placed in 10% NBF. Whole blood was allowed to clot at room temperature for approximately 2 hours before being spun at 13,000 rpm for 8 minutes. • 10. Processing of Joints: Following 1-2 days in fixative and then 4-5 days in decalcifier, the joints were processed, embedded, sectioned and stained with toluidine blue and H&E (2 slides per animal). Only fore and hind paws and knees were processed initially (6 joints/mouse). • 11. Morphologic Pathology Methods: […] Hind paws, fore paws, and knees were embedded and sectioned in the frontal plane. Six joints from each animal were processed for histopathology elevation. • 12. Tissue Processing and Evaluation: • a. place joints in decalcifier, • b. trim joints, wash, process tissues, • c. embed joints, • d. section tissues, stain tissues, • e. histopathologic evaluation, and • f. data processing, QC, prepare graphs and report. Histopathologic Scoring Methods for Mouse Joints with Type II Collagen Arthritis When scoring paws or ankles from mice with lesions of type II collagen arthritis, severity of changes as well as number of individual joints affected must be considered. When only 1-3 joints of the paws or ankles out of a possibility of numerous metacarpal/metatarsal/digit or tarsal/tibiotarsal joints were affected, an arbitrary assignment of a maximum score of 1, 2 or 3 for parameters below (Tables 3-6) was given depending on severity of changes. If more than 3 joints were involved, the criteria below (Tables 3-6) were applied to the most severely affected/majority of joints. [table] [table] [table] [table] For each animal, the inflammation, pannus, cartilage damage and bone damage scores was determined for each of the 6 joints submitted. A sum total (all 6 joints) animal score and a six joint mean animal score was determined as well as sums and means for each of the individual parameters. Data were also expressed as means for paws (4 joints) or knees (2 joints). Parameters for the various groups are then compared to disease control animals. Clinical data for paw scores (means for animal) were analyzed by determining the area under the dosing curve (AUC) for study days 18-34. For calculation of AUC, the daily mean scores for each mouse were entered into Microsoft Excel and the area between the treatment days after the onset of disease to the final day was computed. Means for each group were determined and the percent inhibition from arthritis controls was calculated by comparing values for treated and normal animals.

[3] = tested on: serum anti-type II collagen antibody; experiment: Serum anti-type II collagen antibody levels in mouse type II collagen arthritis; settings: vs vehicle controls
Procedure: Mice were terminated on day 34. […] Evaluation of serum anti-type II collagen antibody levels were also performed (groups 1-3, 6 and 8 only). […] At necropsy, animals from all groups were bled via cardiac puncture for serum and terminated via cervical dislocation. […] Whole blood was allowed to clot at room temperature for approximately 2 hours before being spun at 13,000 rpm for 8 minutes. • 10. […] Histopathologic Scoring Methods for Mouse Joints with Type II Collagen Arthritis Serum analysis for anti-TTC levels was performed on mice from groups 1-3, 6, and 8 only.

## CCN(C(=O)c1c(O)c2c(Cl)cccc2n(C)c1=O)c1ccccc1 [Laquinimod]
[1]; 0.2 mg/kg Laquinimod po QD, by study day 28
  Disease incidence: 100%
[1]; 0.2 mg/kg Laquinimod po QD, d23
  Daily clinical arthritis scores prior to disease occurrence in the vehicle control group: significantly elevated
[1]; 0.2 mg/kg Laquinimod po QD
  Reduction of clinical arthritis scores expressed as area under the curve (AUC): 32%
[1]; 0.2 mg/kg Laquinimod po QD, significant d28-34
  Daily clinical arthritis scores: significantly reduced
[1]; 1 mg/kg Laquinimod po QD, at study termination
  Disease incidence: 90%
[1]; 1 mg/kg Laquinimod po QD, d22-24
  Daily clinical arthritis scores prior to disease occurrence in the vehicle control group: significantly elevated
[1]; 1 mg/kg Laquinimod po QD
  Reduction of clinical arthritis scores expressed as area under the curve (AUC): 52%
[1]; 1 mg/kg Laquinimod po QD, significant d25-34
  Daily clinical arthritis scores: significantly reduced
[1]; 5 mg/kg Laquinimod po QD
  Disease incidence: 70%
  Reduction of clinical arthritis scores expressed as area under the curve (AUC): 69%
[1]; 5 mg/kg Laquinimod po QD, d22-23
  Daily clinical arthritis scores prior to disease occurrence in the vehicle control group: significantly elevated
[1]; 5 mg/kg Laquinimod po QD, significant d24-34
  Daily clinical arthritis scores: significantly reduced
[2]; 1 mg/kg Laquinimod po QD
  Paw histopathology, reduction of summed scores: 61%
  Six-joint mean histopathology, reduction of summed scores: 60%
  Reduction of knee cartilage damage: 62%
  Reduction of knee inflammation: 51%
  Reduction of knee pannus: 59%
  Reduction of summed knee scores: 57%
[3]; 5 mg/kg Laquinimod po QD
  Serum Anti-TTC level: not significantly affected

## CN(Cc1cnc2nc(N)nc(N)c2n1)c1ccc(C(=O)N[C@@H](CCC(=O)O)C(=O)O)cc1 [MTX, Methotrexate]
[1]; MTX 0.5 mg/kg po QD, at study termination
  Disease incidence: 90%
[1]; MTX 0.5 mg/kg po QD
  Reduction of clinical arthritis scores expressed as area under the curve (AUC): 50%
[1]; MTX 0.5 mg/kg po QD, significant days 27-34
  Daily clinical arthritis scores: significantly reduced
[2]; MTX 0.5 mg/kg po QD
  Paw histopathology, reduction of summed scores: 46%
  Six-joint mean histopathology, reduction of summed scores: 43%
[3]; MTX 0.5 mg/kg po QD
  Serum Anti-TTC level: not significantly affected
